pIC50: −log10 of the molar value.
What follows are compounds tested against binding of human von Willebrand factor to europium (Eu)-chelate-labeled chimeric GPIb-Fc protein (Homo sapiens, UniProt P04275+P07359) (assay: Von Willebrand Factor-GPIb Binding Assay (Eu based, botrocetin-induced)). Details: botrocetin-induced binding of Eu-chelate-labeled chimeric GPIb-Fc to immobilized human vWF; IC50 values as specified in the examples.
Procedure: Activity of compounds of the formula I was shown by an Eu based binding assay in which the binding of human von Willebrand factor to an europium (Eu)-chelate-labeled chimeric GPIb-Fc protein was induced by botrocetin. The preparation of the Eu-chelate-labeled chimeric GPIb-Fc protein is described in detail in a patent application (Fukuchi et al., EP1074564).
A TBS (Tris buffered saline, 20 mM Tris-HCl (pH 7.4) and 0.15 M NaCl) (50 microl) containing human von Willebrand factor (2.5 microg/ml) was added to each well of 1 96-well plate, and the von Willebrand factor was immobilized as a solid phase overnight at 4 dec. Each well was washed once with TBS (150 microl) and blocked with TBS containing 5% BSA (bovine serum albumin) for about 3 hours. Each well of the plate was washed twice with TBS (150 microl), and then added with 25 microl of an assay buffer (Assay Buffer, 1244-106, produced by Wallac) with the compounds, further added with the assay buffer (25 microl) containing the europium (Eu)-chelate-labeled chimeric GPIb-Fc protein (100 ng/ml), labeled with Eu-N1-ITC (Eu-chelate of N^1-(p-isothiocyanatebenzyl)-diethlenetriamine-N^1,N^2,N^3,N^3-tetraacetic acid, 1244-302, produced by Wallac) and botrocetin (500 ng/ml), and left stand at room temperature for 2 hours. The preparation of the Eu-chelate-labeled chimeric GPIb-Fc protein is described in detail in a patent application (Fukuchi et al., EP1074564). Each well of the plate was washed 5 times with TBS (150 microl) containing 0.05% Tween-20, then added with 100 microl of a fluorescence enhancement buffer (Enhancement Solution, 1244-104, produced by Wallac), and shaken for 1 minute. Then, the amount of europium (Eu) was measured by using a 1420 ARVO multi-label counter (produced by Wallac, measurements time: 1 second).

binding of human von Willebrand factor to europium (Eu)-chelate-labeled chimeric GPIb-Fc protein, sequence (P04275 764-2813 limits assumed, change not shown): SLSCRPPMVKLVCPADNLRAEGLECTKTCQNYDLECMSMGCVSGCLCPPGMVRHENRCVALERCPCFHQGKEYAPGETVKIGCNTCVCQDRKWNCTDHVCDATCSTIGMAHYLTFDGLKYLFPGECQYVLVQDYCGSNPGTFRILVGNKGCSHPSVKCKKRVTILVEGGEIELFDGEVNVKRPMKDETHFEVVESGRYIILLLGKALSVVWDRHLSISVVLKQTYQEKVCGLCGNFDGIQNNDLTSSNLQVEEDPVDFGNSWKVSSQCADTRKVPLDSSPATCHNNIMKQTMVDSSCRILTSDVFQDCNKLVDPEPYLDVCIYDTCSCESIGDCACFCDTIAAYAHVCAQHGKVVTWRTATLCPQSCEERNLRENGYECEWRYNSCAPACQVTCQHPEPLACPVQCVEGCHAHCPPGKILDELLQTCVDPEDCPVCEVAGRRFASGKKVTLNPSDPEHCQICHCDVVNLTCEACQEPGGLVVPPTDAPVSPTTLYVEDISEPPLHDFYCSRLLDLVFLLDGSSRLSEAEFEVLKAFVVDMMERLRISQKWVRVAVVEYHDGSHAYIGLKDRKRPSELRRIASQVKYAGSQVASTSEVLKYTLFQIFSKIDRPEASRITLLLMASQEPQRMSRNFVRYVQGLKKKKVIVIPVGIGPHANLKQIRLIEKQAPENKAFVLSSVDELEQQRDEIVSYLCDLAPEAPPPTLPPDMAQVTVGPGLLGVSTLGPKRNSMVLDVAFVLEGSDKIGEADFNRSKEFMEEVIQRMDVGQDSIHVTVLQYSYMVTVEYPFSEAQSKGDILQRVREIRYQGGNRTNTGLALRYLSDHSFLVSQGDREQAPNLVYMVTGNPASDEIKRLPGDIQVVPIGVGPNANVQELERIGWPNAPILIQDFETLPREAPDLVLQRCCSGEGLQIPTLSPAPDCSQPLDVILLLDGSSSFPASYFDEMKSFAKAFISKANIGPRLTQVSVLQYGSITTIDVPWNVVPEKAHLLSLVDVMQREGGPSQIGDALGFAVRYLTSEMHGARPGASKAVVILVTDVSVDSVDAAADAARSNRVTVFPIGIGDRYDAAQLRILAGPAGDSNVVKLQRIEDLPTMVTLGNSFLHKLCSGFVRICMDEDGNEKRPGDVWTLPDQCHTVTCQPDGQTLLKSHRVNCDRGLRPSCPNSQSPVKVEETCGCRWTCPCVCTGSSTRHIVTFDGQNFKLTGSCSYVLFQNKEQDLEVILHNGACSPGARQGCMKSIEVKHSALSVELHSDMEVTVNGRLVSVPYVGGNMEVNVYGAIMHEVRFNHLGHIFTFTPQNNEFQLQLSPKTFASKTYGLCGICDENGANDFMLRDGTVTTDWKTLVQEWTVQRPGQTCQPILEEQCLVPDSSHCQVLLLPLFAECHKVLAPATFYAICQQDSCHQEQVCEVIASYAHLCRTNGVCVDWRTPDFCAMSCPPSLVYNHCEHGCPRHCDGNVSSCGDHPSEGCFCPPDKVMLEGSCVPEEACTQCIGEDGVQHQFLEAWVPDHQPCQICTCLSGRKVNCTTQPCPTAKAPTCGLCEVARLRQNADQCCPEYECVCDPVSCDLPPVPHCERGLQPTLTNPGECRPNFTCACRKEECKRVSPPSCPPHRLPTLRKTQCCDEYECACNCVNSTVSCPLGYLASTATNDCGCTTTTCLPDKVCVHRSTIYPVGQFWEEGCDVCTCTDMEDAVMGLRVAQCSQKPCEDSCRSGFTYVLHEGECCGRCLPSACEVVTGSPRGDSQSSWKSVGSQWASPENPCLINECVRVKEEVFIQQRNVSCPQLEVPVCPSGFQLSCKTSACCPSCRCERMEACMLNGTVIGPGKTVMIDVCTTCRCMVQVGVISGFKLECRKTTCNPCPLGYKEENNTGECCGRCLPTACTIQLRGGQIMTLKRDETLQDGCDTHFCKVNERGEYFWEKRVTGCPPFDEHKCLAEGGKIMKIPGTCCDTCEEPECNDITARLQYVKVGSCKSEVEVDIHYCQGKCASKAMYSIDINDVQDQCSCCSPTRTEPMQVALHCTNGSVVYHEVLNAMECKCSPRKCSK
binding of human von Willebrand factor to europium (Eu)-chelate-labeled chimeric GPIb-Fc protein, sequence (P07359 17-335 limits assumed, change not shown): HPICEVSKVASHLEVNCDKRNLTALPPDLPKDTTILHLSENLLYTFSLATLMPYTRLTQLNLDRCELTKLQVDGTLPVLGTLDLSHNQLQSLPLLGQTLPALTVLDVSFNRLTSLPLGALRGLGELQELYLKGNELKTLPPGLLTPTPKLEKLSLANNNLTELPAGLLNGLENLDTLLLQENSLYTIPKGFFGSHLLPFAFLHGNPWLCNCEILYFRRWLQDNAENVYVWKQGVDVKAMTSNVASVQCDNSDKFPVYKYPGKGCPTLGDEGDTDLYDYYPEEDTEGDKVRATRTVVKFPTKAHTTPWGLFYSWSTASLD

Structure (SMILES)	pIC50
COc1cc(NC(=O)c2ccc3[nH]c(C)nc3c2)ccc1NC(=O)c1ccc2nc(C)cc(N)c2c1 [Example 35, 4-Amino-N-(2-methoxy-4-{[(2-methyl-1H-benzimidazol-5-yl)carbonyl]amino}phenyl)-2-methyl-6-quinolinecarboxamide]	5.04
Cc1cc(N)c2cc(C(=O)Nc3ccc(NC(=O)c4ccc5nc(C)cc(N)c5c4)cc3)ccc2n1 [Example 36]	5.80
Cc1cc(N)c2cc(C(=O)Nc3ccc(CNc4ccc5cn[nH]c5c4)cc3)ccc2n1 [Example 37, 4-Amino-N-{4-[(1H-indazol-6-ylamino)methyl]phenyl}-2-methyl-6-quinolinecarboxamide]	5.59
Cc1cc(N)c2cc(C(=O)NC3CCC(NC(=O)c4ccc5nc(N)sc5c4)CC3)ccc2n1 (centres unmarked) [Example 38, 4-Amino-N-(4-{[(2-amino-1,3-benzothiazol-6-yl)carbonyl]amino}cyclohexyl)-2-methyl-6-quinolinecarboxamide]	4.48
Cc1cc(N)c2cc(C(=O)NC3CCC(NC(=O)c4ccc5nc(N)ccc5c4)CC3)ccc2n1 (centres unmarked) [Example 39, 4-Amino-N-(4-{[(2-amino-6-quinolinyl)carbonyl]amino}cyclohexyl)-2-methyl-6-quinolinecarboxamide]	4.55

Source: patent US7745443B2 (Sanofi-Aventis Deutschland GmbH, priority 2002, dated 2010)
